According to article PMC10330721, “Chemo-enzymatic synthesis and biological activity evaluation of propenylbenzene derivatives” (Frontiers in Microbiology, 2023):
Converted amounts (≈) assume the structure as drawn.

Assays:
[1] = system: R. erythropolis DSM44534 and R. erythropolis PCM2150; assay: Substrate inhibition in preparative biotransformation; assay type: cell-based, Rhodococcus erythropolis; conditions: preparative scale, high concentration of substrate (0.2 g in 500 mL PCM medium)
Protocol: (§1) Five hundred millilitres of PCM medium was added into a 2,000-mL Erlenmeyer flask and sterilized at 121°C for 15 min. The medium was inoculated with 5 mL of pre-prepared bacterial cultures at OD600 = 0.3–0.5. The cultures were incubated at 22°C under shaking at 150 rpm for 3 days. Then, 0.2 g of diols 1b–5b dissolved in 5 mL of DMSO was added into the cultures. The samples were extracted after 3, 7, 11 days and evaluated by GC to estimate the progress of the biotransformation.

Dietzia sp. DSM44016 = assay: Substrate toxicity in preparative biotransformation; assay type: cell-based; conditions: preparative scale, 0.2 g substrate in 500 mL PCM medium
Protocol: as §1

C. albicans ATTC 90028 = assay: Fungistatic activity assay, broth microdilution; assay type: cell-based; conditions: Candida albicans; C. albicans ATTC90028, 24 h, 35°C, tested 10–250 μg/mL; read-out: MIC50
Protocol: (§2) Fungistatic activity was determined using Candida albicans ATCC 90028 from the American Type Culture Collection (ATCC, Manassas, VA, United States), and clinical isolates, C. albicans 636/20, C. albicans 595/20, and C. albicans 38 obtained from Wrocław Medical University, Wrocław, Poland.
(§3) All compounds were tested for biological activity against C. albicans ATTC 90028, C. albicans 636/20, C. albicans 595/20, and C. albicans 38 using the broth microdilution method. YPD medium (20 g glucose, 20 g Bacto Peptone, 10 g yeast extract, and 1 L of distilled water, pH 6.5) was used for the tests. The compound solutions were prepared in DMSO and diluted in YPD to obtain final concentrations in the range of 10–250 μg/mL. One hundred microlitres of each solution was pipetted into the wells of a 96-well microtiter plate. The inoculum was standardized to 0.5 McFarland standard and then diluted to obtain a final suspension with a cell density of 0.5–2.5 × 10^3 CFU/mL. The inoculum size was 100 μL. The positive control comprised DMSO added in the same concentration as the tested compounds in the inoculum, whereas the negative control consisted of DMSO diluted in the broth without the addition of inoculum. The microtiter plates were incubated in a Biosan PST-60 HL Plate Shaker-Thermostat (Riga, Latvia) at 35°C under shaking at 1,000 rpm for 24 h.

C. albicans 636/20 = assay: Fungistatic activity assay, broth microdilution; assay type: cell-based; conditions: Candida albicans; C. albicans 636/20, 24 h, 35°C, tested 10–250 μg/mL; read-out: MIC50
Protocol: as §2, §3

RBCs membrane = assay: Fluorescence spectroscopy of the RBCs membrane (DPH probe anisotropy); assay type: cell-based, human; conditions: for Fluorescence anisotropy of the DPH probe: membranes of RBCs, 37 °C
Protocol: Using the DPH probe, the anisotropy values of cell membranes of RBCs modified with the test compounds were measured. RBCs for this analysis were prepared according to the method described in subsection 2.5.3. Then, the DPH probe was added to RBCs with a haematocrit of 0.2%. The final concentration of the probe in the sample was 1.3 μM. The mixture was incubated protected from light at 37°C for 30 min. Then, the compounds dissolved in ethanol were added. The compounds were tested at 20, 60, and 100 μM concentrations. Samples with compounds and control samples with alcohol of the appropriate concentration were incubated at 37°C for 1 h. Measurements in triplicate were made in quartz cuvettes using a CARY Eclipse fluorimeter (Varian, San Diego, CA, United States) at 37°C. The excitation wavelength for the DPH probe is λexc = 360 nm and the emission wavelength is λem = 426 nm.

HepG2 cells = assay: Resazurin-based viability assay; assay type: cell-based, human; conditions: 24 h, 1, 50 and 200 μg/mL
Protocol: (§4) The human HepG2 and Caco-2 cell lines were obtained from the American Type Culture Collection (HB-8065™ and HTB-37™) and the MG-63 cell line was obtained from the European Collection of Authenticated Cell Cultures (Merck, Poznań, Poland). HepG2 cells were cultured in Dulbecco’s modified Eagle’s Medium - low glucose (Merck) supplemented with 10% foetal bovine serum (FBS) (Merck). Caco-2 cells were cultured in Dulbecco’s modified Eagle’s medium - high glucose (Merck) supplemented with 10% FBS, 2% HEPES buffer (Thermo Fisher Scientific, Warszawa, Poland), 1% Penicillin–Streptomycin-Amphotericin B Solution (100×, Merck), 1% MEM solution (100×, Thermo Fisher Scientific), and 1% Gentamycin Solution (10 mg/mL, Merck). MG-63 cells were cultured in Minimum Essential Medium (Merck) supplemented with 10% FBS. All cells were cultured in an atmosphere of 5% CO2 at 37°C.
(§5) HepG2, Caco-2, and […] were seeded in 96-well plates at 20,000 cells per well, and MG-63 cells at 10,000 cells per well, as described previously ([Marycz et al., 2012]; [Kornicka et al., 2017]). The tested compounds were dissolved in ethanol at 10 mg/mL. The concentrations were then adjusted to 1, 50, and 200 μg/mL in culture medium. Four controls were prepared: no ethanol added, and 0.01, 0.5, and 2% EtOH. The cells were treated with the compounds for 24 h. Then, cell viability was evaluated using the resazurin-based assay kit (TOX8), as described previously ([Grzesiak et al., 2011]; [Marycz et al., 2018]). The culture medium was replaced with medium containing 10% resazurin dye. The cells were incubated at 37°C in an atmosphere of 5% CO2 for 2 h. Absorbance levels were measured spectrophotometrically (Epoch) at a wavelengths of 600 nm for resazurin and 690 nm as a reference.

Caco-2 cells = assay: Resazurin-based viability assay; assay type: cell-based, human; conditions: 24 h, 1, 50 and 200 μg/mL
Protocol: as §4, §5

[2] = Haemolytic activity assay; assay type: cell-based; conditions: human red blood cells (RBCs) from healthy donors, 37°C, read-out: Percentage of haemolysis
Protocol: This test is based on comparison of the cytotoxicity of all tested compounds in human red blood cells (RBCs) with that in a control group. RBCs for this method were obtained from a blood center from examined and healthy donors. The compounds were tested at 10, 20, 40, 60, 80, and 100 μM concentrations. The control sample contained only ethanol in the same volume as the test samples. […] The samples were incubated at 37°C for 1 h. Then, the absorbance at 540 nm was measured using a UV–Vis spectrophotometer (Specord 40, Analytik Jena, Jena, Germany). The haemolytic activity of the compounds was determined as the ratio of the absorbance of haemoglobin in the test samples to that in completely haemolyzed cells multiplied by 100%.

C. albicans 595/20 = assay: Fungistatic activity assay, broth microdilution; assay type: cell-based; conditions: Candida albicans; C. albicans 595/20, 24 h, 35°C, tested 10–250 μg/mL; read-out: MIC50
Protocol: as §2, §3

C. albicans strains = assay: Fungistatic activity assay, broth microdilution, values given over several strains; assay type: cell-based, Candida albicans; conditions: Candida albicans; C. albicans 636/20, 595/20, 38 and ATTC90028; read-out: MIC50 (over all tested strains)
Protocol: as §2, §3

[3] = system: human osteosarcoma MG63 cell line; set-up: method as in Pandit et al., 2020; conditions: ref Pandit et al., 2020; cited from earlier work
[4] = system: human hepatocellular carcinoma HepG2 cells; set-up: method as in Yoo et al., 2005; Song et al., 2014, 2020; conditions: ref Yoo et al., 2005; Song et al., 2014, 2020; cited from earlier work
[5] = Free-radical scavenging assay (DPPH test); assay type: biochemical; conditions: DPPH 190 μM in methanol, 1 h, 25°C, absorbance 517 nm
Protocol: The antiradical activity of all compounds was tested using the 2,2-diphenyl-1-picrylhydrazyl (DPPH) test according to a previously described method ([Herald et al., 2012]; [Dudek et al., 2022]). One litre of a fresh solution of 190 μM DPPH in pure methanol was prepared in a dark glass bottle. The solution was kept protected from light and used within a week. The tested compounds and ascorbic acid as a positive control were prepared at concentrations in the range of 5–100 μg/mL. Two hundred microlitres of the test compound dilutions was added to each well of a 96-well microtiter plate. Then, […] of a 190 μM solution of DPPH in methanol was added. DPPH was also added to the negative control, in which 200 μL of methanol was added instead of the test compounds. All samples were tested at least in triplicate. The microtiter plates were incubated in the Biosan PST-60 HL thermoshaker at 25°C under shaking at 1,000 rpm for 1 h. […] EC50 values were calculated using Quest Graph™ EC50 Calculator (AAT Bioquest, Inc.).

Structure (SMILES): CC(O)C(O)c1ccccc1 (stereo not drawn) [2b, 1-phenylpropane-1,2-diol]
- Inhibitory effect of substrate on the strains (in words) [1]: inhibitory effect
- Toxicity of substrate to the strain (in words) (Dietzia sp. DSM44016): toxic
- MIC50 (C. albicans ATTC 90028): 125 µg/mL (≈ 821 µM)
- MIC50 (C. albicans 636/20): 121 µg/mL (≈ 795 µM)
- Change in DPH anisotropy / RBCs membrane fluidity (in words) (RBCs membrane; RBCs, 20, 60 and 100 μM): increase in anisotropy
- Fluorescence anisotropy of the DPH probe (RBCs membrane; 20 µM): 0.286 ± 0.015
- Fluorescence anisotropy of the DPH probe (RBCs membrane; 60 µM): 0.277 ± 0.028
- Fluorescence anisotropy of the DPH probe (RBCs membrane; 100 µM): 0.278 ± 0.011
- Effect on HepG2 proliferation / viability (in words) (HepG2 cells): highest inhibitory effect
- Effect on Caco-2 proliferation / viability (in words) (Caco-2 cells): strongest inhibition
- hemolysis at 1 h, 10 µM [2]: 1.04 ± 0.275%
- hemolysis at 1 h, 20 µM [2]: 1.08 ± 0.107%
- hemolysis at 1 h, 40 µM [2]: 1 ± 0.295%
- hemolysis at 1 h, 60 µM [2]: 1.32 ± 0.255%
- hemolysis at 1 h, 80 µM [2]: 1.79 ± 0.382%
- hemolysis at 1 h, 100 µM [2]: 1.71 ± 0.054%

Structure (SMILES): C/C=C/c1ccc(OC)cc1 [3a, anethole]
- MIC50 (C. albicans 595/20): 62 µg/mL (≈ 418 µM)
- Fluorescence anisotropy of the DPH probe (RBCs membrane; 20 µM): 0.263 ± 0.005
- Fluorescence anisotropy of the DPH probe (RBCs membrane; 60 µM): 0.261 ± 0.009
- Fluorescence anisotropy of the DPH probe (RBCs membrane; 100 µM): 0.259 ± 0.008
- MIC50 (C. albicans strains): 62 to 100 µg/mL (≈ 418 to 675 µM)
- Proliferation and apoptosis in MG63 cell line (in words) [3]: caused abrogation in proliferation and induces apoptosis
- Effect on growth of HepG2 cells (in words) [4]: inhibited the growth
- EC50 antiradical activity [5]: 19.13 µg/mL (≈ 129 µM)
- hemolysis at 1 h, 10 µM [2]: 1.36 ± 0.296%
- hemolysis at 1 h, 20 µM [2]: 1.14 ± 0.159%
- hemolysis at 1 h, 40 µM [2]: 2.23 ± 0.13%
- hemolysis at 1 h, 60 µM [2]: 2.54 ± 0.267%
- hemolysis at 1 h, 80 µM [2]: 2.2 ± 0.108%
- hemolysis at 1 h, 100 µM [2]: 2.5 ± 0.39%
